Measured values taken from PMC7215574, “Development of Thiazolidinones as Fungal Carbonic Anhydrase Inhibitors” (International Journal of Molecular Sciences, 2020).
≈ marks a conversion by molar mass, not a printed value. Read-outs that look alike come from different tables or passages of the source.

What was measured:
C. tropicalis 3 strains [1] = system: T1, C. tropicalis 3 strains; experiment: microbe, parasite or virus in culture; design: species or system clinical Candida isolates; broth microdilution antifungal MIC, visual growth inhibition, CLSI; details: Candida tropicalis, 24 h, read-out: Tested Fungi (MIC Values μg/mL) / C. tropicalis 3 strains
T1 construct: 3 clinical isolates
Method: (§1) The in vitro antifungal activities were determined by the broth microdilution method with sabouraud dextrose broth (BBL Microbiology Systems, Cockeysville, MD, USA), as recommended by the by the CLSI [43]. Ninety-six-well polystyrene microtitre plates containing serial dilutions of each compound were inoculated with each microorganism to yield the appropriate density (1–5 × 10^3 cells/mL) in a 100-μL final volume. Each plate included (i) fungi without the addition of the compound, (ii) just the medium, and (iii) just the compound. Topical and systemic antifungal reference drugs, clotrimazole and fluconazole, were inserted in the experiment. The plates were incubated for 24 h at 35 °C. […] Three independent experiments were performed in triplicate. The antimicrobial activity of these thiazolidinones was evaluated versus 24 clinical Gram-positive (S. aureus and S. epidermidis) and Gram-negative (E. coli and Enterobacter spp.) microorganisms. The antifungal activity of these derivatives was then tested versus 16 clinical fungal isolates belonging to the most relevant Candida spp. (C. albicans, C. tropicalis, C. parapsilosis, C. sakè, and C. glabrata). Prior to testing, each isolate was cultured on a selective medium to ensure purity and optimal growth, as previously reported. The isolates were routinely identified by the morphological aspects of colonies and by biochemical identification. The used clinical isolates were collected from specimens of patients at the ‘Azienda Policlinico Umberto I’ (Sapienza University of Rome) and were obtained from hematology/oncology and surgery departments, which also included an intensive care unit. In particular, the samples were isolated from the upper and lower respiratory tract, blood, and indwelling venous catheters; the isolates were identified by conventional methodologies. Participating subjects gave their written informed consent for this study.

C. albicans 5 strains = system: T2, C. albicans 5 strains; experiment: microbe, parasite or virus in culture; design: species or system clinical Candida isolates; broth microdilution antifungal MIC, visual growth inhibition, CLSI; details: Candida albicans, 24 h, read-out: Tested Fungi (MIC Values μg/mL) / C. albicans 5 strains
T2 construct: 5 clinical isolates
Method: as §1

C. glabrata 3 strains = system: T3, C. glabrata 3 strains; experiment: microbe, parasite or virus in culture; design: species or system clinical Candida isolates; broth microdilution antifungal MIC, visual growth inhibition, CLSI; details: Nakaseomyces glabratus, 24 h, read-out: Tested Fungi (MIC Values μg/mL) / C. glabrata 3 strains
T3 construct: 3 clinical isolates
Method: as §1

CgNce103 = molecular target: T4, CgNce103 (Nakaseomyces glabratus, UniProt Q6FTL6); experiment: stopped-flow CO2 hydrase assay; format: biochemical
T4 construct: gene NCE103; recombinant, obtained in-house as previously reported; beta-class zinc enzyme
T4 sequence (Q6FTL6 1-219): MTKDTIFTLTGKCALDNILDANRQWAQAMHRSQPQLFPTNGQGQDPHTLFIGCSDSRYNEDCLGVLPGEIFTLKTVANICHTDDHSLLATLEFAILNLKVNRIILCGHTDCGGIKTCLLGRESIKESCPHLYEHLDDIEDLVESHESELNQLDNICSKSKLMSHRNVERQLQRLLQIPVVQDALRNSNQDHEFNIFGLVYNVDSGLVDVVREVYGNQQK

hCA I = molecular target: T5, hCA I (Homo sapiens, UniProt P00915); experiment: stopped-flow CO2 hydrase assay; format: biochemical
T5 construct: gene CA1; recombinant, obtained in-house as previously reported
T5 sequence (P00915 2-261): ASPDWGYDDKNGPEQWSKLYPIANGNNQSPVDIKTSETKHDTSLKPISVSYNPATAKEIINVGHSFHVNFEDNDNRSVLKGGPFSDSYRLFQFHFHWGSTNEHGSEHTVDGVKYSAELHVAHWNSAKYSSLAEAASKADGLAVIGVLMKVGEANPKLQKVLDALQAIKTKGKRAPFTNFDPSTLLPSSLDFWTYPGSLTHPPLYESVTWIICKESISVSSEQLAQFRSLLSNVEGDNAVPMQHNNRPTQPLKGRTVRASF
From the text: stopped-flow CO2 hydrase assay on hCA I

[2] = system: T6, Candida sake C. sakè 3 strains; experiment: microbe, parasite or virus in culture; design: species or system clinical Candida isolates; CLSI broth microdilution MIC, Sabouraud dextrose broth, 35 °C, visual complete growth inhibition; details: Fermentozyma sake, 24 h; read-out: Tested Fungi (MIC Values μg/mL) / C. sakè 3 strains
T6 construct: 3 clinical isolates
Method: as §1

[3] = system: T7, C. parapsilosis 2 strains; experiment: microbe, parasite or virus in culture; design: species or system clinical Candida isolates; CLSI broth microdilution MIC, Sabouraud dextrose broth, 35 °C, visual complete growth inhibition; details: Lodderomyces parapsilosis, 24 h, read-out: Tested Fungi (MIC Values μg/mL) / C. parapsilosis 2 strains
T7 construct: 2 clinical isolates
Method: as §1

[4] = stopped-flow CO2 hydrase assay; format: biochemical, Homo sapiens; details: read-out: hCA I
hCA II = molecular target: T8, hCA II (Homo sapiens, UniProt P00918); experiment: stopped-flow CO2 hydrase assay; format: biochemical
T8 construct: gene CA2; recombinant, obtained in-house as previously reported
From the text: stopped-flow CO2 hydrase assay on hCA II

C. tropicalis 3 strains [5] = system: T1, C. tropicalis 3 strains; experiment: microbe, parasite or virus in culture; design: species or system clinical Candida isolates; CLSI broth microdilution MIC, Sabouraud dextrose broth, 35 °C, visual complete growth inhibition; details: Candida tropicalis, 24 h, read-out: Tested Fungi (MIC Values μg/mL) / C. tropicalis 3 strains
Method: as §1

[6] = system: T6, Candida sake C. sakè 3 strains; experiment: microbe, parasite or virus in culture; design: species or system clinical Candida isolates; broth microdilution antifungal MIC, visual growth inhibition, CLSI; details: Fermentozyma sake, 24 h; read-out: Tested Fungi (MIC Values μg/mL) / C. sakè 3 strains
Method: as §1

SMILES | MIC (C. tropicalis 3 strains [1]) [µg/mL] | MIC (C. albicans 5 strains) [µg/mL] | MIC (C. glabrata 3 strains) [µg/mL] | Ki (CgNce103) [µM] | Ki (hCA I) [µM] | MIC [2] [µg/mL] | MIC [3] [µg/mL] | Ki [4] [µM] | Ki (hCA II) [µM] | MIC (C. tropicalis 3 strains [5]) [µg/mL] | MIC [6] [µg/mL]
O=C(N/N=C1\SCC(=O)N1c1ccccc1Br)C(O)c1ccccc1 (centres unmarked) [3g] | 8 to 32 (≈ 19 to 76.1 µM) | 8 to 16 (≈ 19 to 38.1 µM) | 8 to 32 (≈ 19 to 76.1 µM) | 10.2 | > 100 | 16 (≈ 38.1 µM) | 8 (≈ 19 µM) | > 100 |  |  | 
O=C(N/N=C1\SCC(=O)N1c1cccc(Br)c1)C(O)c1ccccc1 (centres unmarked) [3h] | 8 to 32 (≈ 19 to 76.1 µM) | 8 to 16 (≈ 19 to 38.1 µM) | 8 to 32 (≈ 19 to 76.1 µM) | 0.82 | > 100 | 16 (≈ 38.1 µM) | 8 (≈ 19 µM) |  | 55.7 |  | 
O=C(N/N=C1\SCC(=O)N1c1ccc(Br)cc1)C(O)c1ccccc1 (centres unmarked) [3i] |  | 8 to 16 (≈ 19 to 38.1 µM) | 4 to 8 (≈ 9.52 to 19 µM) | 0.87 | > 100 | 16 (≈ 38.1 µM) | 16 (≈ 38.1 µM) |  | 47.4 | 16 (≈ 38.1 µM) | 
Cc1ccccc1N1C(=O)CS/C1=N\NC(=O)C(O)c1ccccc1 (centres unmarked) [3j] |  | 8 to 16 (≈ 22.5 to 45 µM) | 8 to 32 (≈ 22.5 to 90 µM) |  |  |  | 16 (≈ 45 µM) |  |  | 32 (≈ 90 µM) | 8 to 32 (≈ 22.5 to 90 µM)
Cc1cccc(N2C(=O)CS/C2=N\NC(=O)C(O)c2ccccc2)c1 (centres unmarked) [3k] |  | 8 to 32 (≈ 22.5 to 90 µM) | 8 to 32 (≈ 22.5 to 90 µM) | 0.41 | > 100 |  | 16 (≈ 45 µM) |  | 79.3 | 32 (≈ 90 µM) | 8 to 32 (≈ 22.5 to 90 µM)
Cc1ccc(N2C(=O)CS/C2=N\NC(=O)C(O)c2ccccc2)cc1 (centres unmarked) [3l] |  | 8 to 32 (≈ 22.5 to 90 µM) | 8 to 32 (≈ 22.5 to 90 µM) | 6.3 | > 100 |  | 32 (≈ 90 µM) | > 100 |  | 32 (≈ 90 µM) | 8 to 32 (≈ 22.5 to 90 µM)
COc1ccc(N2C(=O)CS/C2=N\NC(=O)C(O)c2ccccc2)cc1 (centres unmarked) [3m] |  | 8 to 32 (≈ 21.5 to 86.2 µM) | 8 to 32 (≈ 21.5 to 86.2 µM) | 0.39 | > 100 |  | 32 (≈ 86.2 µM) | > 100 |  | 32 (≈ 86.2 µM) | 8 to 32 (≈ 21.5 to 86.2 µM)
